These results are taken from US4548946A, “Antiinflammatory and/or analgesic 1,8-Dihydro-(or 3,8-dihydro)-8-aryl-2-[(substituted)thio]-indeno[1,2-d]imidazoles and their corresponding sulfoxides and sulfones” (E. I. Du Pont de Nemours and Company, priority 1982, dated 1985).

SMILES strings stand for the structures. Read-outs that look alike come from different tables or passages of the source.

The test system of experiment [1] is writhing induced by phenylquinone. The experiment is described as follows: Phenylquinone writhing test (analgesic activity). To be noted: read-out: Phenylquinone Writhing ED50. In kind it is in vivo, female white mice. As to the method: PHENYLQUINONE WRITHING TEST
A test compound suspended in 1% methylcellulose was given orally to fasted (17-21 hours) female white mice, 5-20 animals per double blind test. Aqueous (0.01% phenyl-p-benzoquinone)phenylquinone, 0.20 ml per mouse, was injected intraperitoneally 6 minutes before observations were begun.
(In general: In writhing tests, fewer writhes than in controls are read as antinociception.)

Experiment [2] relates to adjuvant-induced arthritis. The experiment is described as follows: Established adjuvant-induced arthritis in rats (paw volume). In kind it is in vivo, Charles River Lewis male rats. The note with it: for ED50: read-out: Adjuvant Arthritic ED50; for Paw volume reduction at indicated daily dose (Adjuvant Arthritic): oral, daily dose 9 (mg/kg), 7 days, printed in the ED50 column, footnote 1.

[3] abbreviates: mouse, oral, fasted 17-21 hours, effective analgesic dose for 50% of the mice.
[4] abbreviates: rat, oral gavage daily for 7 days, ED50% decrease from control paw volume, uninjected left hind paw, one day after last dose.

As usually defined, the ED50 is the midpoint of the dose-response relation. As for `FC(F)(F)Sc1nc2c([nH]1)C(c1ccccc1)c1ccccc1-2` (stereo not drawn) [Example 3, 1,8-Dihydro(or 3,8-dihydro)-2-[(trifluoromethyl)thio]-8-phenyl-indeno[1,2-d]imidazole], the ED50 in experiment [1] (setting [3]) was 0.26 mg/kg; in experiment [2] (setting [4]) it was 1.1 mg/kg.

Consider `COc1ccc2c(c1)C(c1ccccc1)c1[nH]c(SC(F)(F)F)nc1-2` (stereo not drawn) [Example 8], for which the ED50 amounted to 2.4 mg/kg in experiment [1] (setting [3]) and 10.5 mg/kg in experiment [2] (setting [4]).

Regarding `CCCCC1C(=O)N(c2ccccc2)N(c2ccccc2)C1=O` [Phenylbutazone, phenylbutazone, reference compound], the figures for the ED50 in experiment [1] (setting [3]) and in experiment [2] (setting [4]) were 80 mg/kg and 10 mg/kg, respectively.

Regarding `CC(C)Cc1ccc(C(C)C(=O)O)cc1` (stereo not drawn) [Ibuprofen, reference compound], the results for the 50% effective dose (ED50) in experiment [1] (setting [3]) and in experiment [2] (setting [4]) were 10 mg/kg and 100 mg/kg, respectively.

Turning to `O=S(=O)(c1nc2c([nH]1)C(c1ccccc1)c1ccccc1-2)C(F)(F)F` (stereo not drawn) [Example 4, 1,8-Dihydro(or 3,8-dihydro)-2-[(trifluoromethyl)sulfonyl]-8-phenyl-indeno[1,2-d]imidazole], the ED50 in experiment [1] (setting [3]) is 0.04 mg/kg; in experiment [2] (setting [4]) it was 1.35 mg/kg.

In the case of `Cc1ccc2c(c1)-c1nc(S(=O)(=O)C(F)(F)C(F)F)[nH]c1C2c1ccccc1` (stereo not drawn) [Example 16], in experiment [1] (setting [3]), the ED50 turned out to be 0.064 mg/kg. The “Paw volume reduction at indicated daily dose (Adjuvant Arthritic)” value in experiment [2] (rat) was 39%.

Consider `FC(F)(F)Sc1nc2c([nH]1)C(c1ccc(Cl)c(Cl)c1)c1ccccc1-2` (stereo not drawn) [Example 10], for which the ED50 in experiment [1] (setting [3]) turned out to be 1.3 mg/kg. For the same molecule, the “Paw volume reduction at indicated daily dose (Adjuvant Arthritic)” value in experiment [2] (rat) is recorded as 44%.

Regarding `Cc1ccc2c(c1)-c1nc(SC(F)(F)C(F)F)[nH]c1C2c1ccccc1` (stereo not drawn) [Example 15], the values for the 50% effective dose (ED50) in experiment [1] (setting [3]) and in experiment [2] (setting [4]) were 5 mg/kg and 3.6 mg/kg, respectively.

With `FC(F)C(F)(F)Sc1nc2c([nH]1)C(c1ccccc1)c1ccccc1-2` (stereo not drawn) [Example 1, 1,8-Dihydro(or 3,8-dihydro)-2-[(1,1,2,2-tetrafluoroethyl)thio]-8-phenyl-indeno[1,2-d]imidazole], the ED50 in experiment [1] (setting [3]) is 0.16 mg/kg; in experiment [2] (setting [4]) it was 0.79 mg/kg.

In the case of `Fc1ccc(C2c3ccccc3-c3nc(SC(F)(F)F)[nH]c32)cc1` (stereo not drawn) [Example 17], the ED50 in experiment [1] (setting [3]) was found to be 0.14 mg/kg; in experiment [2] (setting [4]) it was 2.4 mg/kg.

As to `COc1ccc(C2c3ccccc3-c3nc(S(=O)(=O)C(F)(F)F)[nH]c32)cc1` (stereo not drawn) [Example 14], the ED50 in experiment [1] (setting [3]) turned out to be 0.2 mg/kg; in experiment [2] (setting [4]), 0.5 mg/kg.

Turning to `CC(=O)Oc1ccccc1C(=O)O` [Aspirin, reference compound], the ED50 is 135 mg/kg in experiment [1] (Mus musculus, po) and 305 mg/kg in experiment [2] (Rattus norvegicus, po).

Take `COc1ccc2c(c1)c(CC(=O)O)c(C)n2C(=O)c1ccc(Cl)cc1` [Indomethacin, reference compound]: the ED50 in experiment [1] (Mus musculus, po) is 0.35 mg/kg; in experiment [2] (Rattus norvegicus, po), 0.3 mg/kg.

For the molecule `CCCCSc1nc2c([nH]1)C(c1ccccc1)c1ccccc1-2` (stereo not drawn) [Example 12], the ED50 in experiment [1] (setting [3]) was 65 mg/kg; in experiment [2] (setting [4]) it was more than 27 mg/kg.

Take `CS(=O)(=O)c1nc2c([nH]1)C(c1ccccc1)c1ccccc1-2` (stereo not drawn) [Example 7, 1,8-Dihydro(or 3,8-dihydro)-2-(methylsulfonyl)-8-phenyl-indeno[1,2]-dimidazole]: the ED50 in experiment [1] (setting [3]) worked out at 14 mg/kg; in experiment [2] (setting [4]), 19 mg/kg.

Consider `CSc1nc2c([nH]1)C(c1ccccc1)c1ccccc1-2` (stereo not drawn) [Example 6, 1,8-Dihydro(or 3,8-dihydro)-2-(methylthio)-8-phenyl-indeno[1,2-d]imidazole], for which the ED50 stood at 27 mg/kg in experiment [1] (setting [3]) and 50 mg/kg in experiment [2] (setting [4]).

`[O-][S+](c1nc2c([nH]1)C(c1ccccc1)c1ccccc1-2)C(F)(F)F` (stereo not drawn) [Example 5, 1,8-Dihydro(or 3,8-dihydro)-2-[(trifluoromethyl)sulfinyl]-8-phenyl-indeno[1,2-d]imidazole]: the ED50 in experiment [1] (setting [3]) came to 0.057 mg/kg; in experiment [2] (setting [4]), 0.62 mg/kg.

`COc1cccc2c1-c1nc(SC(F)(F)F)[nH]c1C2c1ccccc1` (stereo not drawn) [Example 9]: the ED50 was 8.3 mg/kg in experiment [1] (setting [3]) and more than 9 mg/kg in experiment [2] (setting [4]).

For `O=S(=O)(c1nc2c([nH]1)C(c1ccccc1)c1ccccc1-2)C(F)(F)C(F)F` (stereo not drawn) [Example 2, 1,8-Dihydro(or 3,8-dihydro)-2-[(1,1,2,2-tetrafluoroethyl)sulfonyl]-8-phenyl-indeno[1,2-d]imidazole], the ED50 in experiment [1] (setting [3]) is 0.04 mg/kg; in experiment [2] (setting [4]), 0.2 mg/kg.

Take `COc1ccc(C2c3ccccc3-c3nc(SC(F)(F)F)[nH]c32)cc1` (stereo not drawn) [Example 13]: the ED50 worked out at 0.147 mg/kg in experiment [1] (setting [3]) and 3.2 mg/kg in experiment [2] (setting [4]).

For the molecule `CCSc1nc2c([nH]1)C(c1ccccc1)c1ccccc1-2` (stereo not drawn) [Example 11], the ED50 in experiment [1] (setting [3]) and in experiment [2] (setting [4]) was 14 mg/kg in each case.
